We go through 30 molecules from PubChem BioAssay (NCI).

“And” between values parts separate entries of the source, which are not always exact repeats. Identical values can stand only once.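 Interpolation was linear, between the two tested concentrations surrounding the appropriate level; five concentrations were tested over 48 hours in 96-well plates. GI50 marks 50% less growth. TGI marks complete inhibition of growth.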 Some results are limits rather than exact numbers.

Holding throughout (test): DTP human tumour cell line panel, 48 h
For test [1], the system named is A498 renal.
Test [2] concerns HCC-2998 colon.
Test [3] concerns HCT-15 colon.
In test [4] the test system is IGROV1 ovarian.
In test [5] the test system is SF-268 CNS.
For test [6], the system named is SNB-19 CNS.
For test [7], the system named is TK-10 renal.
Test [8] concerns U251 CNS.
For test [9], the system named is UACC-257 melanoma.

`COc1ccc(C(=C(C#N)C#N)c2ccc(OC)cc2)cc1`: the TGI in [1], in test [2], in [3], in test [4], in [5] and in [6] was more than 100 µM throughout. Moreover, the TGI in [7], in test [8] and in test [9] was more than 100 µM throughout.

As for `CN1CCN2c3ccccc3CC(C#N)(C#N)C2C1` (configuration not stated), the TGI in [1], in [2], in test [3], in [4], in test [5] and in test [6] was more than 100 µM in each case. Further, the TGI in test [7], in test [8] and in [9] was more than 100 µM in each case.

Consider `CC(=O)O[C@H]1CC[C@@]2(C)C(=CC[C@@H]3C2CC[C@]2(C)C(=O)NC(=O)CC32)C1` (some centres not stated), for which the TGI in [1], in test [2], in [3], in test [4], in [5] and in test [6] was more than 100 µM in each case. Further, the TGI in [7], in [8] and in test [9] was more than 100 µM in each case.

Turning to `O=C(/C=C/c1ccc[nH]1)c1ccccc1`, the TGI in [3], in [5], in [6], in test [7], in [8] and in test [9] was more than 100 µM in each case.

For the molecule `CN1C(=O)C(C)(C)NS1(=O)=O`, the TGI in test [1], in test [2], in test [3], in test [4], in test [5] and in test [6] was more than 100 µM throughout. For the same molecule, the TGI in [7], in [8] and in [9] was more than 100 µM each time.

Regarding `CCOc1cccc2sc(N)nc12`, the TGI in test [1], in test [2], in [3], in test [4], in test [5] and in test [6] was more than 100 µM each time. The TGI in test [7], in test [8] and in [9] was more than 100 µM in each case.

Regarding `C=C(c1ccccc1)[C@@]1(O)CCCC[C@H]1NC(c1ccccc1)c1ccccc1`, the TGI in test [1] stood at 27.7 µM; in [2], 26.1 µM; in test [3], 24.5 µM; in test [4], 42.4 µM; in test [5] it was 27.6 µM; in [6] it was 36.7 µM. For the same molecule, the TGI is 32.5 µM in [7], 24.5 µM in test [8] and 25.1 µM in [9].

Consider `COc1cccc(-c2cc(C(=O)Nc3ccc(Cl)cc3)nc(N)n2)c1`, for which the TGI in test [1], in [2], in [3], in test [4], in [5] and in [6] was more than 100 µM in each case. The TGI in test [7], in test [8] and in [9] was more than 100 µM throughout.

Take `O=C1C[C@@H]2[C@@H](C=CC23CC3)N1O`: the TGI in test [1], in test [2], in test [4], in test [5], in test [6] and in test [7] was more than 100 µM throughout. Besides, the TGI in [8] and in [9] was more than 100 µM in each case.

As to `CCOC(=O)C1Nc2ccc([N+](=O)[O-])cc2[C@H]2OCC[C@@H]12` (some centres not stated), the concentration for total growth inhibition (TGI) in test [1], in test [2], in [3], in [4], in test [5] and in test [6] was more than 100 µM each time. Moreover, the TGI in test [7], in test [8] and in test [9] was more than 100 µM throughout.

For the molecule `CN(Cc1ccccc1)c1ncnc2ccc(Br)cc12`, the GI50 in test [1] was 4.8 µM; in test [2], 11.9 µM; in test [3] it was 14.1 µM; in [4] it was 8.17 µM; in test [5] it was 10.2 µM; in [6], 16.8 µM. Besides, the GI50 in test [7] is 5.68 µM; in [8], 11.9 µM. Moreover, the TGI in test [1] is 17.1 µM; in test [2], 26.3 µM; in test [3] it was 32 µM; in [4] it was more than 100 µM; in [5], 27.5 µM; in test [6] it was 41.9 µM. For the same molecule, the TGI came to 19.8 µM in test [7] and 24.6 µM in test [8].

As for `CCCCCCN(CCCCCC)C1=CC(=O)C(=O)c2ccccc21`, the total growth inhibition concentration (TGI) in test [1] stood at 41.6 µM; in [2], 35.6 µM; in [3], 34.8 µM; in [4], 31.1 µM; in [5] it was 36.6 µM; in [6] it was 29.6 µM. Besides, the TGI in test [7] came out at 36.1 µM; in test [8], 29.3 µM; in [9], 28.6 µM.

As for `CN(C(=N)c1ccccc1)c1ccccc1`, the TGI in test [2], in [3], in [4], in test [6], in [7] and in test [8] was more than 100 µM each time.

On to `CC12CCC(=O)N1c1cc([N+](=O)[O-])ccc1N2` (configuration not stated), for which the TGI in [1], in [3], in test [4], in test [5], in test [6] and in test [8] was more than 100 µM throughout. In addition, in [9], the TGI was more than 100 µM.

In the case of `[O-]c1ccccc1[C-]=Nc1ccccc1O.[O-]c1ccccc1[C-]=Nc1ccccc1O.[O]=[U]=[O]`, the GI50 is 22.8 µM in test [1]; 3.56 µM in test [3]; 21.8 µM in [4]; 11.3 µM in test [5]; 28.9 µM in test [7]; 11.6 µM in test [8]. In test [9], the GI50 was 3.9 µM. For the same molecule, the TGI in test [1] amounted to 46.6 µM; in [3], 36.3 µM; in test [4] it was 71 µM; in test [5], 58.1 µM; in [7], 55.5 µM; in [8] it was 33.6 µM. Also, the TGI in test [9] was determined as 26.3 µM.

As for `COC(=O)c1ccc(CS(=O)(=O)c2ccccc2)cc1`, the TGI in test [2], in test [3], in [4], in test [5], in [6] and in [7] was more than 100 µM throughout. Besides, the TGI in test [8] and in [9] was more than 100 µM each time.

Take `Clc1cc2nc[nH]c2cc1Cl`: the TGI in test [1], in test [2], in [3], in test [4], in test [5] and in test [6] was more than 100 µM throughout. The TGI in test [7] and in [8] was more than 100 µM in each case.

With `CCOC(=O)NC(=O)c1cn(CC(=O)NCC(=O)NCC(=O)N2CCN(CCn3c(C)nc(C(N)=O)c3N)CC2)c(=O)[nH]c1=O`, the TGI in test [1], in [2], in test [3], in [4], in test [5] and in test [6] was more than 100 µM throughout. Moreover, the TGI in [7], in test [8] and in test [9] was more than 100 µM throughout.

For `Cc1cc(NCCCNc2ccnc3cc(Cl)ccc23)nc(Nc2ccc(C(=O)N3CCCCC3)cc2)n1`, the GI50 is 1.89 µM in test [1]; 2.47 µM in test [2]; 2.52 µM in test [3]; 3.09 µM in test [4]; 1.91 µM in test [5]; 3.55 µM in test [6]. The results for the GI50 in test [7], in test [8] and in [9] were 1.99 µM, 2.25 µM and 2.39 µM, respectively. Moreover, the TGI in test [1] was determined as 5.07 µM; in [2], 6.65 µM; in [3], 6.79 µM; in [4], 12.7 µM; in test [5] it was 5.11 µM; in test [6], 12.5 µM. The TGI came to 4.59 µM in test [7], 4.92 µM in test [8] and 4.56 µM in test [9].

In the case of `CCCCCCCCCCCCCCCCCc1cc(Cl)nc(Cl)n1`, the TGI in test [2], in test [3], in [4], in [5], in [6] and in test [7] was more than 100 µM throughout. Also, the TGI in [8] and in [9] was more than 100 µM in each case.

For the molecule `O=c1/c(=C/c2ccccc2O)sc2nc3ccccc3n12`, the TGI is more than 100 µM in test [1]; more than 100 µM in test [2]; 49.8 µM in [3]; 85.1 µM in test [4]; 56.7 µM in [5]; more than 100 µM in [6]. In addition, the TGI in test [7] and in [9] was more than 100 µM each time.

For the molecule `Clc1cc(Cl)cc(C2SCc3nc4ccccc4n32)c1` (configuration not stated), the TGI in test [5] was determined as 59.3 µM; in test [6], 66.9 µM; in test [7], 70.2 µM; in [8], 34.2 µM; in test [9], 32.4 µM.

In the case of `OCC(O)C(O)C(O)c1nn[nH]n1` (configuration not stated), the TGI in [3], in test [4], in [5] and in test [8] was more than 100 µM in each case.

Take `CC(C)(C)c1cc(O)c2c(c1O)C(=O)CCC2`: the TGI in [1], in [2], in [3], in test [4], in [6] and in test [7] was more than 100 µM throughout. The values for the concentration for total growth inhibition (TGI) in test [8] and in test [9] were more than 100 µM and 74.3 µM, respectively.

On to `CO[C@H](C(=O)O[C@H]1C(=O)N2CCC3CCC1C32C)c1ccccc1` (some centres not stated), for which the TGI in [2], in [3], in [4], in test [5], in test [6] and in test [8] was more than 100 µM in each case. The molecule also came in with a TGI in [9] of more than 100 µM.

Regarding `Cc1cc(Cl)ccc1NC(=O)C1C(=O)C(=O)N(c2ccc(Cl)cc2C)C1=O` (configuration not stated), the TGI in [1] was more than 100 µM; in test [2], more than 100 µM; in test [3] it was more than 100 µM; in [4], more than 100 µM; in test [5] it was more than 100 µM; in test [6], 68.1 µM. Further, the TGI in test [7], in [8] and in [9] was more than 100 µM each time.

Regarding `C/C(=N\NC(=O)C[n+]1ccccc1)c1sc(-c2nc(C)c(/C(C)=N/NC(=O)C[n+]3ccccc3)s2)nc1C`, the TGI in [1], in test [2], in test [3], in test [4], in [5] and in test [6] was more than 100 µM each time. In addition, the TGI in test [7], in [8] and in test [9] was more than 100 µM each time.

In the case of `O=C1C2c3[nH]c4ccccc4c3C3CCC(c4ccccc4)CC3C2C(=O)N1c1ccccc1` (configuration not stated), the TGI in test [2], in [3], in [4], in test [5], in test [6] and in test [7] was more than 100 µM each time. In test [8], this molecule registered a TGI of more than 100 µM.

Consider `CC1OC(OC23C(=O)CC(C)(O)CC2(O)C=CC2=C3C(=O)c3ccc(C4CC(OC5CCC(OC6CC(O)C(O)C(C)O6)C(C)O5)C(O)C(C)O4)c(O)c3C2=O)CCC1O` (configuration not stated), for which the TGI in test [2] is 31.1 µM and 27.3 µM; in test [4] it was 30.6 µM and 30.1 µM; in test [5], 31.4 µM and 31.2 µM; in [6] it was > 100 µM and 51.7 µM; in [7], 36.5 µM and 31.6 µM; in test [8], 29.5 µM and 30.8 µM. The TGI in test [9] is 31.9 µM and 28.8 µM. The GI50 in test [6] was 50.8 µM and 22.8 µM.

Consider `Cc1ccc2oc(=O)cc(CC(=O)O)c2c1`, for which the TGI in test [1], in test [2], in [3], in [4], in [5] and in [6] was more than 100 µM throughout. For the same molecule, the TGI in test [7] and in test [8] was more than 100 µM each time.
